Reference: PMC6934184, “Selective DNA-PKcs inhibition extends the therapeutic index of localized radiotherapy and chemotherapy” (The Journal of Clinical Investigation, 2019)

Assays:
Huh7 = assay: clonogenic survival with doxorubicin; assay type: cell-based, human; conditions: NU5455 1 μM, 24 hours
[1] = plasma pharmacokinetics across mouse strains and doses; assay type: in vivo
Procedure: by determining the absorbance at 570 nm of SRB stain dissolved in Tris base (10 mM, pH 10.5) using a spectrophotometer (BMG Labtech).
In vivo pharmacokinetic analyses
All animal experiments were performed in accordance with the Animals (Scientific Procedures) 1986 Act. 8-9 week old mice were purchased from Charles River Laboratories and housed under specific pathogen-free conditions under 12 hour light/dark cycles.
Female CD-1, CD-1 nude, BALB/c nude and C57BL/6 mice were treated with NU5455 (30 or 100 mg/kg prepared in 1% (v/v) acetic acid or NMP:Encapsin (30% aq):PEG4000 (1:6:3 v/v/v) dosed by oral gavage. Blood samples were collected into heparinized tubes at 15, 30, 60, 180 and 360 minutes post-gavage.
Blood samples were centrifuged at 6700 x g for 3 minutes, the plasma removed and stored at -20°C prior to analysis for drug by HPLC with fluorescence detection. Aliquots of plasma (50 µl) were vigorously vortexed with acetonitrile (450 µl) and the precipitate removed by centrifugation at 6700 x g for 5 minutes. […]
Samples (20 µl) were applied to a 10 x 0.46 cm Genesis C18 4 µm column (Grace Vydac) fitted with an in-line filter. […] Analytes were detected by fluorescence at 390 nm following excitation at 242 nm. Plasma concentrations were determined using linear standard curves (0.01 µM – 10 µM, R2 > 0.98) generated by extracting compounds from […]

## CN(C(=O)CN1CCOCC1)c1ccc2sc3c(-c4cccc5c(=O)cc(N6CC7CCC(C6)O7)oc45)cccc3c2c1 [NU5455]
Huh7
  Fold potentiation of doxorubicin (LD80, SER80): 3.5 fold
[1]; 30 mg/kg oral
  plasma pharmacokinetic profile, CD-1 nude versus C57BL/6 mice: comparable
[1]; 100 mg/kg oral, versus 30 mg/kg
  duration of plasma concentrations: longer duration
